Reference: ChEMBL document CHEMBL5465560, “Selectivity Literature for EUbOPEN Chemogenomic Library” (2024)

Assays:
[1] = molecular target: T1, Phosphatidylinositol 5-phosphate 4-kinase type-2 beta (Homo sapiens) (UniProt P78356); assay: Selectivity interaction (KinomeScan (DiscoverX)) EUB0001049a PIP4K2B; conditions: at 1 µM
T1 sequence (whole entry): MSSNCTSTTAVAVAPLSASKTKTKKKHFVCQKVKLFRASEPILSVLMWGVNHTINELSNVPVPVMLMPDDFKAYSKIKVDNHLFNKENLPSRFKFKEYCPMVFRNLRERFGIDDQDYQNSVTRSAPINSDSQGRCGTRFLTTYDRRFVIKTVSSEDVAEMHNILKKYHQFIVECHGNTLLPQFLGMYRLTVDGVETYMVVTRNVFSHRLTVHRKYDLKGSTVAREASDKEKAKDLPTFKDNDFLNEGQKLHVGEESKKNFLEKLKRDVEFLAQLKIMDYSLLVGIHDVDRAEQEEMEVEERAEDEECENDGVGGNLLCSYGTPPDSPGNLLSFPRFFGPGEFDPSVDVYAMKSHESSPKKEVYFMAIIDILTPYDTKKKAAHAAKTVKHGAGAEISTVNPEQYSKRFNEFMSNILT

[2] = molecular target: Bromodomain-containing protein 4 (Homo sapiens, UniProt O60885); assay: Selectivity interaction (Human bromodomain panel (DSF assay)) EUB0000233b BRD4
[3] = molecular target: Serine/threonine-protein kinase PAK 3 (Homo sapiens) (UniProt O75914); conditions: at 10 µM
[4] = molecular target: Homeodomain-interacting protein kinase 3 (Homo sapiens, UniProt Q9H422); assay: Selectivity interaction (KinomeScan (DiscoverX)) EUB0000595a HIPK3; conditions: at 10 µM
[5] = molecular target: Proto-oncogene tyrosine-protein kinase Src (Homo sapiens, UniProt P12931); assay: Selectivity interaction (Kinase panel (enzymatic assay)) EUB0000595a SRC
[6] = molecular target: T2, Rhodopsin kinase GRK7 (Homo sapiens) (UniProt Q8WTQ7); assay: Selectivity interaction (KinomeScan (DiscoverX)) EUB0000092b GRK7; conditions: at 10 µM
T2 sequence (whole entry): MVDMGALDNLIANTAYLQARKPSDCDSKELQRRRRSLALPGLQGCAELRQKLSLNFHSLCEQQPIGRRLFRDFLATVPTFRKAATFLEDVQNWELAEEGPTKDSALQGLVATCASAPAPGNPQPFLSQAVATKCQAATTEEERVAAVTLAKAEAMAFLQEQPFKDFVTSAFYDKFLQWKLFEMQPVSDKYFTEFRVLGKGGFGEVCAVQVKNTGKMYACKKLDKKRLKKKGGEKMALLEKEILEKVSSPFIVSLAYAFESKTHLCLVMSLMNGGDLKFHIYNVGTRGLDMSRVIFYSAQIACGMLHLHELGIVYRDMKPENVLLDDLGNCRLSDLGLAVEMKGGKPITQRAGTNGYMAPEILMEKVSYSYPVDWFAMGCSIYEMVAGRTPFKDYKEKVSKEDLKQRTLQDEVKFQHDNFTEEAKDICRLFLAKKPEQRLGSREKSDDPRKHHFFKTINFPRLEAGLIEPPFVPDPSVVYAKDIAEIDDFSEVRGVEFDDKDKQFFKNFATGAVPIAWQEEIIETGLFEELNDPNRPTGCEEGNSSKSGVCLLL

[7] = molecular target: T3, Bone morphogenetic protein receptor type-2 (Homo sapiens) (UniProt Q13873); assay: Selectivity interaction (KinomeScan (DiscoverX)) EUB0000092b BMPR2; conditions: at 10 µM
T3 sequence (whole entry): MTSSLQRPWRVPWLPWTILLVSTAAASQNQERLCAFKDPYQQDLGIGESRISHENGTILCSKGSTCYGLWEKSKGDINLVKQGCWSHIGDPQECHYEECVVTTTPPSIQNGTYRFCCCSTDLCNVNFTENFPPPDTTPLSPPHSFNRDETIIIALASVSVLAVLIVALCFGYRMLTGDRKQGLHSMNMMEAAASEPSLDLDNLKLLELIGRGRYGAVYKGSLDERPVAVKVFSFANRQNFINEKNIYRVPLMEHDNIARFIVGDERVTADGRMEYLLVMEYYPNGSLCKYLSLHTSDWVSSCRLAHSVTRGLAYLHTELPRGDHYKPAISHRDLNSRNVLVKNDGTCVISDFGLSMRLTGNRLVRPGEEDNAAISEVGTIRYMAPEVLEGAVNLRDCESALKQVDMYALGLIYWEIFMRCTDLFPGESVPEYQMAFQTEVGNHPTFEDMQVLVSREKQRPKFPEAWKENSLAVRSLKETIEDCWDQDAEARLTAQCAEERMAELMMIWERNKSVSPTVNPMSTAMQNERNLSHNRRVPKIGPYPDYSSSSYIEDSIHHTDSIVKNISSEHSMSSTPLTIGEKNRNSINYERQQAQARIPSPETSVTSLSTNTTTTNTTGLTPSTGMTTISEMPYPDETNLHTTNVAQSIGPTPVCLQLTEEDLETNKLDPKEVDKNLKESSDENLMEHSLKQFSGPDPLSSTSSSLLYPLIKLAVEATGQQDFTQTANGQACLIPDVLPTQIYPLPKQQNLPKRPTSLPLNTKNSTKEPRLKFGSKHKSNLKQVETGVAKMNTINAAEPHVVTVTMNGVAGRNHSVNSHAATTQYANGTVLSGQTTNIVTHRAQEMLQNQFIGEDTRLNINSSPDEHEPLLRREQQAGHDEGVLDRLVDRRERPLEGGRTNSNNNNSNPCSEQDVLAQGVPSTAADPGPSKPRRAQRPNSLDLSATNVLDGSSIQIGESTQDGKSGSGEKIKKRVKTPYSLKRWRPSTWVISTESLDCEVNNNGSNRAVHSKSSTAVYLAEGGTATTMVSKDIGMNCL

[8] = molecular target: Insulin receptor-related protein (Homo sapiens) (UniProt P14616); assay: Selectivity interaction (Ambit KINOMEscan and KiNATiv profiling in Jurkat cells) EUB0000090b INSRR; assay type: cell-based; conditions: at 1 µM
[9] = molecular target: Ribosomal protein S6 kinase alpha-5 (Homo sapiens) (UniProt O75582); assay: Selectivity interaction (KinomeScan (DiscoverX)) EUB0000045b RPS6KA5; conditions: at 1 µM
Chain of Ribosomal protein S6 kinase alpha-5 (Homo sapiens) (O75582 whole entry, looked up): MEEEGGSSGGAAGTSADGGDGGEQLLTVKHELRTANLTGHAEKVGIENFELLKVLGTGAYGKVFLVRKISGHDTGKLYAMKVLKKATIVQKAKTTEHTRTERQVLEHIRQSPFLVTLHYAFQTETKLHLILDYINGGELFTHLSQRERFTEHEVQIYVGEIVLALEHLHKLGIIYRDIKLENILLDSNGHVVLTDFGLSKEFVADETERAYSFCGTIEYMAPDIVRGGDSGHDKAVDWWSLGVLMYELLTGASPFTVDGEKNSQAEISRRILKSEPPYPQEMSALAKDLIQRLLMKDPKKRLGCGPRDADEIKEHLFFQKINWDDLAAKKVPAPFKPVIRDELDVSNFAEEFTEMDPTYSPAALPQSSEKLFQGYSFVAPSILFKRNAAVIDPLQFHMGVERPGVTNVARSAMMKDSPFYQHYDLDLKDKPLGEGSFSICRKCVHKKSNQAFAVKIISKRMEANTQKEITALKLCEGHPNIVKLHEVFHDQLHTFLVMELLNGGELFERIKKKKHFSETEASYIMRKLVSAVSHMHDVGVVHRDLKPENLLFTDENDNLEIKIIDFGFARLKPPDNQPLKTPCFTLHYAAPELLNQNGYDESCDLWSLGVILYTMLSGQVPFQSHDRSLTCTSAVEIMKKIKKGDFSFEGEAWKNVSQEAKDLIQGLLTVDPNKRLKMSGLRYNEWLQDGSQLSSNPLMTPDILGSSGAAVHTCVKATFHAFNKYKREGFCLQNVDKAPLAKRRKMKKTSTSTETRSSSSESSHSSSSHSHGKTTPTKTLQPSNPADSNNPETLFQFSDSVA

Chain of Proto-oncogene tyrosine-protein kinase Src (P12931 2-536 limits assumed): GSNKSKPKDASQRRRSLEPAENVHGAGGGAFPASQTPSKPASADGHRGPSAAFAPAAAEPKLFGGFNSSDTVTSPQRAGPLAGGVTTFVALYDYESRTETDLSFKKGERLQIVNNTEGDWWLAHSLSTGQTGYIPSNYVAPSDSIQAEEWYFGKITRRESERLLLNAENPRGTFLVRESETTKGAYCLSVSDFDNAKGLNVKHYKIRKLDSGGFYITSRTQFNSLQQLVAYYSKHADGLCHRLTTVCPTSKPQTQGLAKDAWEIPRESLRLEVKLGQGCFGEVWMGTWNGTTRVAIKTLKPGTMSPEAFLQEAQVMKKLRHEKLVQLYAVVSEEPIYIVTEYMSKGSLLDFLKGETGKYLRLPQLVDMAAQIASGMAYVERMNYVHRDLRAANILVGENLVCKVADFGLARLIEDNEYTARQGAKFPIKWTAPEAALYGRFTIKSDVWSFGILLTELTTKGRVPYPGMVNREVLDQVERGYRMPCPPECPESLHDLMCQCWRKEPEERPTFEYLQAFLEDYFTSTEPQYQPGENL
Chain of Insulin receptor-related protein (Homo sapiens) (P14616 27-742 limits assumed): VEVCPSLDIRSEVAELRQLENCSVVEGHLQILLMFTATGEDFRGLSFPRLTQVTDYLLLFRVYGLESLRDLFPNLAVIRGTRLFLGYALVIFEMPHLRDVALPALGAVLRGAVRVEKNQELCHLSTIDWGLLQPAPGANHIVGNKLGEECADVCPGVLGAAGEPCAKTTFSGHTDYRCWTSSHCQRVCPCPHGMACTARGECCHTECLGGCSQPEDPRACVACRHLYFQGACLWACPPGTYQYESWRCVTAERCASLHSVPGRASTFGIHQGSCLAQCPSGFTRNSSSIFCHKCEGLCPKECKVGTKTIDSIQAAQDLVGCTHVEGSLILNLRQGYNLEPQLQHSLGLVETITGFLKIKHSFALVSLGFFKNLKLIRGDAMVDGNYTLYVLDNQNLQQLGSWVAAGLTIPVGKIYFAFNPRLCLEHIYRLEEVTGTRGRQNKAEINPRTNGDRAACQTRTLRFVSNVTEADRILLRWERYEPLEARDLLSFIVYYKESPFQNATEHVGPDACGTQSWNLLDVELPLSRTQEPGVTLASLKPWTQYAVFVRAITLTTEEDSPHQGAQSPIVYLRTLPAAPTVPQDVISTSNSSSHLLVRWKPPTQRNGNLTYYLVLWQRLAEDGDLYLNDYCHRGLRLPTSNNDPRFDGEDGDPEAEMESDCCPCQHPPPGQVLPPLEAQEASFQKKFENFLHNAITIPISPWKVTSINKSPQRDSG
Chain of Insulin receptor-related protein (Homo sapiens) (P14616 747-1297 limits assumed): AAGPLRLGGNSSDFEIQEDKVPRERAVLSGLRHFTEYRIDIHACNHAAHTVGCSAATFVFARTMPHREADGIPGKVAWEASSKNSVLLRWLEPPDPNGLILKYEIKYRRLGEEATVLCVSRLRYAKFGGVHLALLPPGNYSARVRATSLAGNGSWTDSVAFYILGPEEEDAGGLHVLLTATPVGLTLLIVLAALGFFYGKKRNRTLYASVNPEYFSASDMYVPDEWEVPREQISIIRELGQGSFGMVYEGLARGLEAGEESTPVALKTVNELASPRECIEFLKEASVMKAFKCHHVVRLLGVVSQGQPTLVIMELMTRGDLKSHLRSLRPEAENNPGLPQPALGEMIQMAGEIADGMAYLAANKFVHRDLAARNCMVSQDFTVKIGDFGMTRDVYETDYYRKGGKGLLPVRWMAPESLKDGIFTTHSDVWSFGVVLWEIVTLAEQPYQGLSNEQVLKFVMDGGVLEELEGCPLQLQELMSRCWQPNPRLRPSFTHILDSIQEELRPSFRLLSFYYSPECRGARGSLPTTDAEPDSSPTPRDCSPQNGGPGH
Chain of Homeodomain-interacting protein kinase 3 (Q9H422 whole entry, looked up): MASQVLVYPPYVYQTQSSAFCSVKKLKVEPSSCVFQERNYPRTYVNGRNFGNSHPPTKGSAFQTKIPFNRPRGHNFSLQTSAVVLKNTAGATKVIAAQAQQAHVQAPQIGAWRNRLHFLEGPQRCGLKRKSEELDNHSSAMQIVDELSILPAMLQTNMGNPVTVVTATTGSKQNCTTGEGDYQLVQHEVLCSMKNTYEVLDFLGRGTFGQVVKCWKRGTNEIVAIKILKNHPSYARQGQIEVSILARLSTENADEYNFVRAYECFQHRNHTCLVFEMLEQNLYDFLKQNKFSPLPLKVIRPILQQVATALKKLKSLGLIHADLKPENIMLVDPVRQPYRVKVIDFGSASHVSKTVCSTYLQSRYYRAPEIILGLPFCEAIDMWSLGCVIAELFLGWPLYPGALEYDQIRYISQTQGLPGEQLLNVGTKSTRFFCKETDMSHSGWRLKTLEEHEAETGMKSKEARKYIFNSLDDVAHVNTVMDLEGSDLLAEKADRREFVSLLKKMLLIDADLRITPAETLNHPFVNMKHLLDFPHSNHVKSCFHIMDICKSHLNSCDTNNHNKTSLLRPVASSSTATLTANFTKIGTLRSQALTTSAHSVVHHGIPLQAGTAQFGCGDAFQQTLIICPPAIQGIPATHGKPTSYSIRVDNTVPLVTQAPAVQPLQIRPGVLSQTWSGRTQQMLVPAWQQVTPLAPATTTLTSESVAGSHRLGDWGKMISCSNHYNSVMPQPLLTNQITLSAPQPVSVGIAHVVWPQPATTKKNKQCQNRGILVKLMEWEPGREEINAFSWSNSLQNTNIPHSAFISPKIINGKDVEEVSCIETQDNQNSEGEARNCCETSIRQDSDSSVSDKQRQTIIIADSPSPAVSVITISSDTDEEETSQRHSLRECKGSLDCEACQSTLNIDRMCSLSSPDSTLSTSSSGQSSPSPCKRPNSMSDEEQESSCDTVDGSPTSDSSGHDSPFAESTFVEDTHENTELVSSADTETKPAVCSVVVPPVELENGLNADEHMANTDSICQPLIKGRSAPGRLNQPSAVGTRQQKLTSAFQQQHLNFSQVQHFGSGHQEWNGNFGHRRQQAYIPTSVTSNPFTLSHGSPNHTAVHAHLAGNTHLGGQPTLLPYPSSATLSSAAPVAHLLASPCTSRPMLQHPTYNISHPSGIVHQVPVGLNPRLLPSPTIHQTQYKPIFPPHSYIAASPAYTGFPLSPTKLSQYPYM
Chain of Serine/threonine-protein kinase PAK 3 (Homo sapiens) (O75914 whole entry, looked up): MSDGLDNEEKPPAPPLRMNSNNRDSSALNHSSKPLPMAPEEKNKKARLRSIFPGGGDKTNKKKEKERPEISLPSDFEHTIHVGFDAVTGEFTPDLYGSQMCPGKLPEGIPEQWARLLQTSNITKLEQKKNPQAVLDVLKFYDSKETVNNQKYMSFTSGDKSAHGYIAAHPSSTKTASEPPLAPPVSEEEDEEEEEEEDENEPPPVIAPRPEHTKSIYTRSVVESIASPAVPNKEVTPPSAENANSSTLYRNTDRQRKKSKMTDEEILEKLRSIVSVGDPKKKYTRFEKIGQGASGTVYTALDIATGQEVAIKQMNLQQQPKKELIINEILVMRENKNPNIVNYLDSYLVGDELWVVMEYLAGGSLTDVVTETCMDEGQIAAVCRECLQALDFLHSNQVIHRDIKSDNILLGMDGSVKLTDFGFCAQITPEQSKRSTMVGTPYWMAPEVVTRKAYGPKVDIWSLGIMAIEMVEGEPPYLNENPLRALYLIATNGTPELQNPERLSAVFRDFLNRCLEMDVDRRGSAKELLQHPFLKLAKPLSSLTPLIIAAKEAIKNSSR

Compound: COc1cc(Nc2nc(C)cc(-c3cnn4nc(OC)ccc34)n2)cc(C(F)(F)F)c1
- % of control [1]: 96%

Compound: CN(C)CCCOc1ccc(-c2cc(NCCCn3cccn3)nc(S(C)(=O)=O)n2)cc1
- dTM [2]: < 2 K

Compound: CCN(CC)CCCCNc1ncc2cc(-c3cc(OC)cc(OC)c3)c(NC(=O)NC(C)(C)C)nc2n1
- % of control [3]: 100%

Compound: COCC(=O)NC/C=C/c1ccc2ncnc(Nc3ccc(Oc4ccc(C)nc4)c(C)c3)c2c1 [CP-724714]
- % of control [4]: 100%
- IC50 [5]: > 10 µM

Compound: CCC(=O)N1CCN(c2ccc(-n3c(=O)ccc4cnc5ccc(-c6cnc7ccccc7c6)cc5c43)cc2C(F)(F)F)CC1
- % of control [6]: 100%
- % of control [7]: 85%

Compound: CN(C)C/C=C/C(=O)Nc1ccc(C(=O)N2CCCC(Nc3ncc(Cl)c(-c4c[nH]c5ccccc45)n3)C2)cc1 (centres undefined)
- % of control [8]: 100%

Compound: C=CC(=O)Nc1cc(-n2c(=O)ccc3cnc4ccc(-c5ccc(NS(C)(=O)=O)cc5)cc4c32)ccc1C
- % of control [9]: 95%
